Columns and labels:
E-coli GGT = molecular target: T1, E-coli GGT (Escherichia coli, UniProt P18956); experiment: Second-order rate constant kon of E-coli GGT inactivation (continuous or discontinuous assay); type: biochemical, Escherichia coli K-12; details: second-order rate constant for enzyme inactivation; pH 5.5, 25° C.
T1 construct: was used as a purified enzyme of E-coli GGT; made in house
T1 sequence (P18956 26-390 limits assumed): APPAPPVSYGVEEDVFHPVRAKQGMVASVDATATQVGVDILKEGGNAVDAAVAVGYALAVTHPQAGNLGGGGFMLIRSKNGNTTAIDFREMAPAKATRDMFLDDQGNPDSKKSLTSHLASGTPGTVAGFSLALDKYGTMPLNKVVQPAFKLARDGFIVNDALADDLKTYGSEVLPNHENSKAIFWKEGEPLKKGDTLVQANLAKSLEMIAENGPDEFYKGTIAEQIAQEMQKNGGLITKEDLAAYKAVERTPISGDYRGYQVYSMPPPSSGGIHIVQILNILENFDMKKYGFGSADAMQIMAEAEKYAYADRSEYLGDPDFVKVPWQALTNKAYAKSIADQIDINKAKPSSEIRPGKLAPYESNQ
T1 sequence (P18956 391-580 limits assumed): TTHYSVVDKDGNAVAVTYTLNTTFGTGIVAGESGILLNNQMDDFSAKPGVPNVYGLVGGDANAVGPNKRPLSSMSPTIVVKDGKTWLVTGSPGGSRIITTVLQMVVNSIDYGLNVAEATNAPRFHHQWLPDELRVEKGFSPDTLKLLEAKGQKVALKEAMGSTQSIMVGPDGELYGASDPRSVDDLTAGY
From the text: (§1) Purified enzyme of E-coli GGT and crude enzyme of human GGT were employed as GGT samples for an inhibition experiment. The enzyme whose physicochemical properties are described in the Document (Hideyuki Suzuki, Hidehiko Kumagai, Tatsurokukro Tochikura “gamma-Glutamyltranspeptidase from Escherichia coli K-12: Purification and Properties” Journal of Bacteriology, December 1986, Vol. 168, No. 3, p. 1325-1331) was used as a purified enzyme of E-coli GGT. Enzyme [HC-GTP (product number), 603AA (lot number)] manufactured by Asahi Kasei Co., Ltd. was used as a crude enzyme of human GGT. The crude enzyme of human GGT contained a large amount of bovine serum albumin (BSA) to stabilize the enzyme, and the GGT concentration was 1% or lower.
In the hydrolytic assay of E. coli GGT, 10 μL of a […] enzyme solution was added to a 100 mM succinic acid-sodium hydroxide buffer solution (pH 5.5) in a total volume of 1 mL containing 100 μL of 2 μM substrate aqueous solution. The product, 7-amino-4-methylcoumarin (AMC), released along with the enzyme reaction was traced continuously at 25° C. using a fluorospectrophotometer F-2000 manufactured by Hitachi Ltd. (excitation wavelength: 350 nm, emission wavelength: 440 nm). The AMC concentration was separately measured by forming a calibration curve showing the relation of the fluorescence intensity (F) and the concentration (C) using standard solutions and was calculated from the relational expression (1) of the fluorescence intensity alteration (ΔF) and concentration alteration (ΔC).
(§2) Next, a second-order rate constant for enzyme inactivation kon was measured by either a continuous assay or a discontinuous assay. Both of the continuous and discontinuous assay for measuring inhibitory activity to GGT were carried out under a pseudo-first-order reaction condition.
(§3) In the continuous assay, while the temperature was kept at 25° C., the 100 mM succinic acid-sodium hydroxide buffer solutions (pH 5.5) containing an inhibitor in various concentrations and the substrate were preincubated for equilibrium. Herein, 0.2 μM of the substrate was used for the case of E-coli GGT and 0.4 μM of the substrate was used for the case of human GGT. Thereafter, the enzyme solution of the E-coli GGT was added in a manner that the final concentration became 0.04 nM and also the human GGT crude enzyme solution was added in a manner that the final concentration became 5 μg/mL. Accordingly, the reaction was started and the release of AMC (increase of the fluorescence intensity) was continuously traced for 10 minutes.
(§4) The fluorescence intensity data obtained from the respective curves was applied to the following pseudo-first-order rate equation (2) and the observed pseudo-first-order rate constant for enzyme inactivation (kobs) was calculated by nonlinear regression analysis [Stein, R. L. et al. Biochemistry 26, 2682-2689 (1987)].
(§5) [Equation 2] [P]=[P]∞[1−exp(−kobst)] (2)
(§6) When the kobs was plotted against to the inhibitor concentration ([I]), a linear relation was obtained until the maximum extent of the experimentally possible inhibitor concentration. Therefore, the second-order rate constant for enzyme inactivation kon was calculated using the following equation (3) deduced from the kinetic mechanism.
(§7) [drawing 37] [Equation 3] kobs=kon[I]/(1+[S]/Km) (3)
(§8) Herein, S denotes 7-(γ-L-glutamylamino)-4-methylcoumarin. The substrate concentration [S] for E-coli GGT is 0.2 μM and the Km value is 0.2 μM. […] The kinetic data was obtained by nonlinear regression analysis using Kaleida graph, a program produced by Synergy Software.
Further, in the discontinuous assay, an inhibitor in various concentrations was dissolved in 100 mM succinic acid-sodium hydroxide buffer solution (pH 5.5) and the enzyme solution was added to the resulting buffer solutions. […]

human GGT = molecular target: T2, human GGT (Homo sapiens, UniProt P19440); experiment: Second-order rate constant kon of human GGT inactivation (continuous or discontinuous assay); type: biochemical
T2 construct: purchased Asahi Kasei Co., Ltd. HC-GTP (lot 603AA)
T2 sequence (P19440 1-380 limits assumed): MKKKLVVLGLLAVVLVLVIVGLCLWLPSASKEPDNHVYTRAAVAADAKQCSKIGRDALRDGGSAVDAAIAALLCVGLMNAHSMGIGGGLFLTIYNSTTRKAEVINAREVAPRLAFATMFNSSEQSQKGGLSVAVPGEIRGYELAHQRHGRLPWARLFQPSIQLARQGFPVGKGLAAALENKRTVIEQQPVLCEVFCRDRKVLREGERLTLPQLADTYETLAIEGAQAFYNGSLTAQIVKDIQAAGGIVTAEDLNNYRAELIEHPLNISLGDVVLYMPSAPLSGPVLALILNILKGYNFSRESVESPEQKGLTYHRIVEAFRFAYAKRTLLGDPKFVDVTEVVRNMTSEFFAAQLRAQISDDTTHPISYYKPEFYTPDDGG
T2 sequence (P19440 381-569 limits assumed): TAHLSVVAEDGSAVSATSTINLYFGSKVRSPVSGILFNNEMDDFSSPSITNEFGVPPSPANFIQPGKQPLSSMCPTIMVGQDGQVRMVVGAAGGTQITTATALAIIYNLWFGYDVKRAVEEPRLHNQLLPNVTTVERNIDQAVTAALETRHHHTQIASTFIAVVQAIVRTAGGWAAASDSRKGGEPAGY
From the text: as §1
In the hydrolytic assay of human GGT, the measurement was carried out in the same manner as that in the hydrolytic assay of E-coli GGT, except that the substrate concentration was changed to […] and therefore, the explanation of the common portions was omitted.
as §2, §3, §4, §5, §6, §7, §8
Further, in the discontinuous assay, an inhibitor in various concentrations was dissolved in 100 mM succinic acid-sodium hydroxide buffer solution (pH 5.5) and the enzyme solution was added to the resulting buffer solutions. Herein, in the case of E-coli GGT, the enzyme solution was added in a manner that the final concentration became 0.4 nM and also the human GGT crude enzyme solution was added in a manner that the final concentration became 0.5 mg/mL. Accordingly, the reaction of the inhibitor and each GGT was conducted at 25° C. An aliquot (10 μL) of each of the reaction solutions were sampled at every specified time to measure the remaining enzyme activity by the above-mentioned enzyme activation method. The remaining enzyme activity at every time was analyzed by nonlinear regression using the pseudo-first-order rate equation (4) of enzyme inactivation to calculate the value of kobs.
[Equation 4] αt/α0=exp(−kobst) (4) […]

[1] = Chemical stability: hydrolysis ratio after storage in water at room temperature; type: physicochemical; details: stored in water at room temperature for 12 hours
Protocol: Herein, the hydrolysis ratios of the reactive compounds of Examples 1 to 11 were measured after the respective compounds were stored in water at room temperature. In this connection, the compounds other than the compound of Example 10 were stored in water for 12 hours and the compound of Example 10 was stored in water for 112 hours.

[2] = system: glutamine-dependent asparagine synthetase; experiment: Inhibition of glutamine-dependent asparagine synthetase; type: biochemical; details: 10 mM compound, incubated for 2 hours
From the text: Therefore, the phosphonic acid diester derivative (1) specifically reacts on GGT.

SMILES: COP(=O)(CCC(N)C(=O)O)Oc1cccc(CC(=O)O)c1 (stereo not drawn) [Example 11, 2-amino-4-{[3-(carboxymethyl)phenyl](methyl)phosphono}butanoic Acid]
- kon E-coli GGT (E-coli GGT): 150 M^−1S^−1
- plot of log kon (human GGT) against pKa of aryl group, FIG. 4 (human GGT; position relative to the straight line): deviate upward
- kon of human GGT inactivation relative to the compound of Example 12 (human GGT; ratio of kon 51 to kon 0.33): about 155 times
- kon Human GGT (human GGT; second-order rate constant for enzyme inactivation, pH 5.5, 25° C.): 51 M^−1S^−1
- Hydrolysis ratio (%) [1]: 0%
- inhibition of the function of glutamine-dependent asparagine synthetase [2]: did not inhibit

From patent publication US8129557B2, “Phosphonic acid diester derivative and method for producing thereof” (priority 2005, dated 2012)
